Values quoted from earlier work as cited in patent publication US5648396A, “Methods for treating depression and other disorders using optically pure R (-) fluoxetine and monoamine oxidase inhibitor” (Sepracor Inc., priority 1995, dated 1997).
Entries after “also recorded” stand apart in the source; their conditions may differ.

How the values were obtained:
uptake of norepinephrine = settings: relative to effect on 5HT uptake
acetic acid writhing = settings: Robertson et al 1988
D2 receptor = settings: relative to effect on 5HT uptake
PCPA effect on 5HT = settings: for Duration of Inhibition of PCPA 5HT effect / Inhibition of PCPA effect on 5HT (full block): Fuller & Snoddy 1986; for Inhibition of PCPA effect on 5HT (ED50): Robertson et al 1988
α2 receptor = settings: relative to effect on 5HT uptake
D1 receptor = settings: relative to effect on 5HT uptake
[1] = test system: writhing (morphine potentiation); settings: Robertson et al 1988
α1A receptor = settings: relative to effect on 5HT uptake
Saccharine palatability = settings: Robertson et al 1988
5HT1A receptor = settings: relative to effect on 5HT uptake
5HT1 receptor = settings: relative to effect on 5HT uptake
HT2 receptor = settings: relative to effect on 5HT uptake
β receptor = settings: relative to effect on 5HT uptake
Feeding = settings: rel. potency R vs S, Wong et al 1988
[2] = suggested
[3] = test system: dopamine turnover in striatum; settings: in vivo
patients [4] = settings: in vivo
5HIAA = settings: acute effect; Wong et al. 1985
[5] = racemic mixture
histaminergic receptors = settings: than tricyclic antidepressants; brain tissue
α1 adrenergic receptors = settings: than tricyclic antidepressants; brain tissue
patients [6] = test system: patients
[7] = test system: morning sickness during pregnancy; settings: control of morning sickness during pregnancy; suggested
[8] = L-form versus D-enantiomer

SMILES | affinity for the uptake of norepinephrine (uptake of norepinephrine) | Inhibition of acetic acid writhing (ED50) (acetic acid writhing) | affinity for D2 receptor (D2 receptor) | Duration of Inhibition of PCPA 5HT effect (PCPA effect on 5HT) | Inhibition of PCPA effect on 5HT (ED50) (PCPA effect on 5HT) | Inhibition of PCPA effect on 5HT (full block) (PCPA effect on 5HT) | affinity for α2 receptor (α2 receptor) | affinity for D1 receptor (D1 receptor) | Inhibition of writhing (morphine potentiation; ED50) [1] | affinity for α1A receptor (α1A receptor) | Inhibition of Saccharine palatability (ED50) (Saccharine palatability) | affinity for 5HT1A receptor (5HT1A receptor) | affinity for 5HT1 receptor (5HT1 receptor) | affinity for HT2 receptor (HT2 receptor) | affinity for β receptor (β receptor) | also measured
CNCC[C@H](Oc1ccc(C(F)(F)F)cc1)c1ccccc1 [S-Fluoxetine] | relatively little affinity | 25.7 mg/kg | relatively little affinity | > 24 h | 1.2 mg/kg | ~ 5 mg/kg | relatively little affinity | relatively little affinity | 5.7 mg/kg | relatively little affinity | 4.9 mg/kg | relatively little affinity | relatively little affinity | relatively little affinity | relatively little affinity | 
CNCC[C@@H](Oc1ccc(C(F)(F)F)cc1)c1ccccc1 [R-Fluoxetine, (-)N-methyl-3-phenyl-3-[(α,α,α-trifluoro-p-tolyl)-oxy]-propylamine] | relatively little affinity | 15.3 mg/kg | relatively little affinity | ~ 8 hr | 2.1 mg/kg | ~ 10 mg/kg | relatively little affinity | relatively little affinity | 3.6 mg/kg | relatively little affinity | 6.1 mg/kg | relatively little affinity | relatively little affinity | relatively little affinity | relatively little affinity | Inhibition of Feeding (meal fed, 2DG) (rel. potency) (Feeding): R < S
O=C1CC[C@H](N2C(=O)c3ccccc3C2=O)C(=O)N1 [L-enantiomer of thalidomide] |  |  |  |  |  |  |  |  |  |  |  |  |  |  |  | teratogenicity [2]: potent teratogen
CNCCC(Oc1ccc(C(F)(F)F)cc1)c1ccccc1 (racemic) [R,S-Fluoxetine] |  |  |  |  |  |  |  |  |  |  |  |  |  |  |  | dopamine turnover in striatum [3]: affects dopamine turnover in striatum; wait after discontinuing fluoxetine before starting treatment with an MAOI (patients [4]): 5-6 weeks; levels of the intracellular serotonin metabolite 5HIAA (5HIAA): rapid reduction; half-life and duration of action (in words) [5]: long half-life and long duration of action; binding to histaminergic receptors (histaminergic receptors): much less potently; binding to α1 adrenergic receptors (α1 adrenergic receptors): much less potently; drug discontinuation due to headaches, nervousness, anxiety and insomnia (patients [6]; of patients treated with the drug): 5%; adverse effects (in words) (patients [6]; patients): produces a state of inner restlessness (akathisia); also recorded: severe anxiety leading to intense violent suicidal thoughts and self mutilation; also recorded: manic behavior; also recorded: nausea, diarrhea, drowsiness, decrease in libido, and/or sexual dysfunction; anticholinergic and cardiovascular side effects (patients [6]; versus tricyclic antidepressants): less anticholinergic side effects such as blurred vision, dry mouth, constipation and urinary retention; also recorded: less lowering of blood pressure, tachycardia and arrhythmias
O=C1CC[C@@H](N2C(=O)c3ccccc3C2=O)C(=O)N1 [D-enantiomer of thalidomide] |  |  |  |  |  |  |  |  |  |  |  |  |  |  |  | sedative effect [7]: safe and effective sedative
CC(C)NC[C@H](O)COc1cccc2ccccc12 [L-form of propranolol] |  |  |  |  |  |  |  |  |  |  |  |  |  |  |  | potency relative to the D-enantiomer [8]: 100 times
